These results are taken from ChEMBL document CHEMBL1201862, “PubChem BioAssay data set” (2004).

SMILES strings stand for the structures. Calls of active or inactive are those of the source.

A short description of assay [1]: Trypanosoma cruzi growth suppression in host cells – NIH3T3 host cells, beta-gal luminescence, confirmation (AID 2044).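 Note: intracellular parasites grown in NIH/3T3 mouse fibroblasts as host cells; luminescent beta-galactosidase reporter signal from transgenic T. cruzi replicating inside host cells; inhibitors lower the luminescence signal.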 The assay is classed as functional, cell-based.
Assay [2] in a line: Counterscreen for AddAB inhibitors: absorbance-based bacterial cell-based high throughput dose response assay for inhibitors of bacterial viability. [Related pubchem assays (depositor defined):AID435030, AID449728, AID449731, AID488942, AID488955, AID488956]. The assay is classed as functional.
The target of assay [3] is T1, Bcl-2-like protein 10 (Homo sapiens, UniProt Q9HD36).
T1 sequence (Q9HD36 whole entry): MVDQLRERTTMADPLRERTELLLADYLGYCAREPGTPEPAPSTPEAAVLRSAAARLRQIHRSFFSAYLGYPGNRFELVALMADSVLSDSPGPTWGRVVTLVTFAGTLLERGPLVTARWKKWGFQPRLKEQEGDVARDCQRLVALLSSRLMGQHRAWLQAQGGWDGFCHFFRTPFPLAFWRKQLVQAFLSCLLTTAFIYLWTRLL
The assay is described as follows: Bcl-B/TR3 peptide binding disruption – biochemical, fluorescence polarization, FITC-TR3 peptide, selectivity assay for Bfl-1 inhibitor project, primary screen (AID 748).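 Note: fluorescence polarization from a fluorescein-labelled TR3 peptide binding purified Bcl-B.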

The target of assay [4] is Genome polyprotein (dengue virus type 2, UniProt P29990). Put plainly: flavivirus cap methylation enzyme inhibition – biochemical, confirmation dose response, primary screen (AID 588689). The assay is classed as functional.
Assay [5] is described as follows: IC50 of Artemis nuclease activity blockers – biochemical, fluorescence intensity, dose response (AID 720701).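 Note: Artemis endonuclease enzyme.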 The assay is classed as functional.
Assay [6] can be described thus: DRD fibroblast viability loss – cell-based, non-viral oncogenic, luminescence, dose response (AID 1934). The assay is classed as functional. Conditions: Homo sapiens.
For assay [7], the target named is CAAX prenyl protease 2 (Saccharomyces cerevisiae S288c, UniProt Q03530). The assay is classed as biochemical.
The target in assay [8] is T2, CAAX prenyl protease 2 (Homo sapiens, UniProt Q9Y256).
T2 sequence (Q9Y256 whole entry): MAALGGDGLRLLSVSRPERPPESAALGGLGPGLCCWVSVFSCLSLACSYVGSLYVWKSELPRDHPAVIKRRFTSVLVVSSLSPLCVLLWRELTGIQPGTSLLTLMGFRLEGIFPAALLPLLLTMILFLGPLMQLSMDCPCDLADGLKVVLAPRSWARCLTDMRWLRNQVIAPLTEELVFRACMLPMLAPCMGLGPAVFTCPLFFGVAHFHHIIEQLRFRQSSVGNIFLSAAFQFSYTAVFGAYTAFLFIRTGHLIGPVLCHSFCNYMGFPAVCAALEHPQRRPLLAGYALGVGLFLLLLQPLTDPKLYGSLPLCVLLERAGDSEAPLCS
Put plainly: inhibition of Ras-converting CAAX protease Rce1 – biochemical, yeast membranes, quenched-peptide fluorescence, cherry-pick, dose response (AID 588849).

The test system of assay [9] is HEK293. Put plainly: optical interference in Abeta FP readout, dose response, artefact control for IDE activator project, biochemical, fluorescence polarization (AID 588442). The assay is classed as functional, cell-based. Conditions: Homo sapiens.
A short description of assay [10]: reduction of Shn3 3'UTR-driven luciferase in osteoblasts – cell-based, Clone20 osteoblasts, firefly luciferase, cherry-picked, dose response (AID 624132).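 Note: firefly luciferase luminescence from reporter carrying the Shn3 3'UTR in osteoblasts.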 The assay is classed as functional.
In assay [11] the target is T3, Long-chain-fatty-acid--AMP ligase FadD28 (Mycobacterium tuberculosis, UniProt P9WQ59).
T3 sequence (P9WQ59 whole entry): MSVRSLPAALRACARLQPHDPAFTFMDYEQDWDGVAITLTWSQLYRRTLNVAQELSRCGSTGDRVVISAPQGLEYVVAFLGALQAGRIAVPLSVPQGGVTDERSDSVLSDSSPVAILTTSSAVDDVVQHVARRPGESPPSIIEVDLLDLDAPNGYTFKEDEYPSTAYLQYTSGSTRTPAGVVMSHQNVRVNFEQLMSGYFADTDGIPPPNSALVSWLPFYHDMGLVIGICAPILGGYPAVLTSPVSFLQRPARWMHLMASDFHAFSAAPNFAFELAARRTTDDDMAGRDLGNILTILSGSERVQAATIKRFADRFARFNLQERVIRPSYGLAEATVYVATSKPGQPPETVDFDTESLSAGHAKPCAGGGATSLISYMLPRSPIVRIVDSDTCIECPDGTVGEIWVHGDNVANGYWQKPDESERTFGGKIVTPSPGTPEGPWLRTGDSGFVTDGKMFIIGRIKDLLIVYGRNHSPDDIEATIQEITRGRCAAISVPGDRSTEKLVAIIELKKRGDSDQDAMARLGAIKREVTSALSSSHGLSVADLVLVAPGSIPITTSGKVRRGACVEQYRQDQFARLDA
The assay is described as follows: Fluorescence polarization aasay to screen for inhibitors that compete for the binding of FadD28 to a bisubstrate Measured in Biochemical System Using Plate Reader - 2147-01_Inhibitor_Dose_CherryPick_Activity. The assay is classed as functional, Mycobacterium tuberculosis H37Rv.

Assay [12] concerns the target Tyrosine-protein kinase SYK (Homo sapiens, UniProt P43405). The assay is classed as functional.
Assay [13] has as its target Serine/threonine-protein kinase 17A (Homo sapiens, UniProt Q9UEE5). The assay is classed as functional.
In assay [14] the target is Cyclin-dependent kinase 2 (Homo sapiens, UniProt P24941). The assay is classed as functional.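 Note: CDK2 measured as one member of a broad kinome profiling panel.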
In assay [15] the target is LIM domain kinase 1 (Homo sapiens, UniProt P53667). The assay is described as follows: Navigating the Kinome. Panel member name: LIMK1. The assay is classed as functional.
Assay [16] has as its target Serine/threonine-protein kinase Chk1 (Homo sapiens, UniProt O14757). The assay is classed as functional.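 Note: measured as one member of a kinome-wide kinase profiling panel.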
Assay [17] concerns the target Cyclin-dependent kinase 5 (Homo sapiens, UniProt Q00535). The assay is classed as functional.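 Note: CDK5 measured as one member of a kinase profiling panel.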
Assay [18] concerns the target Serine/threonine-protein phosphatase (Homo sapiens, UniProt Q9BPW0). Put plainly: inhibition of protein phosphatase 5 activity – biochemical, fluorescence, dose response (AID 2395).
Assay [19] addresses T4, Tyrosyl-DNA phosphodiesterase 2 (Homo sapiens, UniProt O95551).
T4 sequence (O95551 whole entry): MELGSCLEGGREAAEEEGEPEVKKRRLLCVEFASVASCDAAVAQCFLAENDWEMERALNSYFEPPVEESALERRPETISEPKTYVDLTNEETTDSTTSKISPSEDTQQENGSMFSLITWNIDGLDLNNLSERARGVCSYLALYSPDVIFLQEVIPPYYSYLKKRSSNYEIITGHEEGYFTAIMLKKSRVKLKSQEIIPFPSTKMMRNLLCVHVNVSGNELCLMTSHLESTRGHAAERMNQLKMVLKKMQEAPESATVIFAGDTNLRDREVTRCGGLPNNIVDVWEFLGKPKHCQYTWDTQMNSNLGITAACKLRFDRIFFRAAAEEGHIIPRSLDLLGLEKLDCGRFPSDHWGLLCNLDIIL
Put plainly: potency against TDP2 phosphodiesterase activity – biochemical, epi absorbance, IC50, dose response (AID 743297).

Sequence of Serine/threonine-protein kinase 17A (Q9UEE5 whole entry): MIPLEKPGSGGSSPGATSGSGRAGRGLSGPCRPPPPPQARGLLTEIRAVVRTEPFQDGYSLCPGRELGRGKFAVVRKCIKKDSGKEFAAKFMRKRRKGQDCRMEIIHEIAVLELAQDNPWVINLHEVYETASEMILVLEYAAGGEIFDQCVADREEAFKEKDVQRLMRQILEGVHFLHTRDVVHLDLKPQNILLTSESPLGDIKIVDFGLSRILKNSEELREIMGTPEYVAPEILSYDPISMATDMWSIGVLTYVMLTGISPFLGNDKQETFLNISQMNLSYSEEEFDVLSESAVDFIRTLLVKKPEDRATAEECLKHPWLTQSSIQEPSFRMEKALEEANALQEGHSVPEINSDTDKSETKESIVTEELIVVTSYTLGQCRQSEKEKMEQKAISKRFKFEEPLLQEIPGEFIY
Sequence of Genome polyprotein (P29990 2492-3391 limits assumed): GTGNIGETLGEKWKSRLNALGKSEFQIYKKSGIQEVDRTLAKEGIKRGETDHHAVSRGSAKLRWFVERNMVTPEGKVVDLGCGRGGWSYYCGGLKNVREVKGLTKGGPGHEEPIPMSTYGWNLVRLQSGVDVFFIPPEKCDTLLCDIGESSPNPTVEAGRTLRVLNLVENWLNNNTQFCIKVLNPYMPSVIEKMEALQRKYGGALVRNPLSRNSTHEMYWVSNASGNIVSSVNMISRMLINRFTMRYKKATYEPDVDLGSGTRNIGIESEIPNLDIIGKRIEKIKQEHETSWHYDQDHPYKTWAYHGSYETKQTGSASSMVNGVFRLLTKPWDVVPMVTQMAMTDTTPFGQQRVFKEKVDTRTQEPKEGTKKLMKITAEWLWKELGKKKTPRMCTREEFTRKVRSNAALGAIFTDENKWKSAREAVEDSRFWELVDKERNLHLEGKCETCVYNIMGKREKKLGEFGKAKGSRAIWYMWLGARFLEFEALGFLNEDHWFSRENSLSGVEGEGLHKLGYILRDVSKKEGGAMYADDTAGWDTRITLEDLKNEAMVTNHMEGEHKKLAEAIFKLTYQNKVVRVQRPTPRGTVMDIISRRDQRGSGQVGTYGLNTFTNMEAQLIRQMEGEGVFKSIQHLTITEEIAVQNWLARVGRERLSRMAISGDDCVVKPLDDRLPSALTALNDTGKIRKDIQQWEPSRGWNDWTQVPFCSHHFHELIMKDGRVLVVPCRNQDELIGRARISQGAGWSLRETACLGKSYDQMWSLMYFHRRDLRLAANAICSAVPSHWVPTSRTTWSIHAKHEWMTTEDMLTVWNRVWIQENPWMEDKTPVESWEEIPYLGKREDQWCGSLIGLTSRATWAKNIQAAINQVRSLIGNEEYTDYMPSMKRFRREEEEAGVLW
Sequence of Serine/threonine-protein phosphatase (Q9BPW0 whole entry): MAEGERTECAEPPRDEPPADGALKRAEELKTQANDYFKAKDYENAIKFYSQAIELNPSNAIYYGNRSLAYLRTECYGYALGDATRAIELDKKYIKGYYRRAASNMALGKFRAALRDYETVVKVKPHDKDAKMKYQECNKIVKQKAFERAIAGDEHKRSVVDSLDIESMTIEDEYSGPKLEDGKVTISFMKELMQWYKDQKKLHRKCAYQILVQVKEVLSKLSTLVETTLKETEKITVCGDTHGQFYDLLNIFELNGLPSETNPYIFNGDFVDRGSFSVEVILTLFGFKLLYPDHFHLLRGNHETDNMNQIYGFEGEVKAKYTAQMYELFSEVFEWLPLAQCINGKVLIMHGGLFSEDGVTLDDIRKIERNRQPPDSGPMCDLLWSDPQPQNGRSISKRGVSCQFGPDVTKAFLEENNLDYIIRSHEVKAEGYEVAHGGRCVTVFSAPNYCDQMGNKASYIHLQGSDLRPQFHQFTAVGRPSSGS
Sequence of Serine/threonine-protein kinase Chk1 (O14757 whole entry): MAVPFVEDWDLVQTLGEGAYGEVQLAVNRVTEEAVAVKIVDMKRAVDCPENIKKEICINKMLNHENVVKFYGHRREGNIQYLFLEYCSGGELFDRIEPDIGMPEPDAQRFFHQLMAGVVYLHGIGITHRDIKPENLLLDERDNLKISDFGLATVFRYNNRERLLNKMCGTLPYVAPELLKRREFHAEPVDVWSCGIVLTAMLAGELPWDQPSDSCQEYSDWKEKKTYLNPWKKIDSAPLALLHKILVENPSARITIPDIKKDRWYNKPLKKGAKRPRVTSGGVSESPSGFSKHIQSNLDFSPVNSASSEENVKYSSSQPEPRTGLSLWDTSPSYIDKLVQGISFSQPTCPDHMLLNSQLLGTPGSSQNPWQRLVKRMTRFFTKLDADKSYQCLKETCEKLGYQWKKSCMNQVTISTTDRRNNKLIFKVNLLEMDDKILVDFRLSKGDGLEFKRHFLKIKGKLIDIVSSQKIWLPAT
Sequence of Cyclin-dependent kinase 5 (Q00535 whole entry): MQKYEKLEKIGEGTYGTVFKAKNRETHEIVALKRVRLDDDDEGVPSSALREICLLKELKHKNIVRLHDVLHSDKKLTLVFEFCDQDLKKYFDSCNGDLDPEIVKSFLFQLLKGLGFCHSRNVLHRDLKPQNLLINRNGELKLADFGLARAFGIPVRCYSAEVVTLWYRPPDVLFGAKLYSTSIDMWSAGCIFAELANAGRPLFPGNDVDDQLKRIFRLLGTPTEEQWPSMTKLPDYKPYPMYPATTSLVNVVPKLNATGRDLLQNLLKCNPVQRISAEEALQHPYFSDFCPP
Sequence of LIM domain kinase 1 (P53667 whole entry, the tested form may be a part): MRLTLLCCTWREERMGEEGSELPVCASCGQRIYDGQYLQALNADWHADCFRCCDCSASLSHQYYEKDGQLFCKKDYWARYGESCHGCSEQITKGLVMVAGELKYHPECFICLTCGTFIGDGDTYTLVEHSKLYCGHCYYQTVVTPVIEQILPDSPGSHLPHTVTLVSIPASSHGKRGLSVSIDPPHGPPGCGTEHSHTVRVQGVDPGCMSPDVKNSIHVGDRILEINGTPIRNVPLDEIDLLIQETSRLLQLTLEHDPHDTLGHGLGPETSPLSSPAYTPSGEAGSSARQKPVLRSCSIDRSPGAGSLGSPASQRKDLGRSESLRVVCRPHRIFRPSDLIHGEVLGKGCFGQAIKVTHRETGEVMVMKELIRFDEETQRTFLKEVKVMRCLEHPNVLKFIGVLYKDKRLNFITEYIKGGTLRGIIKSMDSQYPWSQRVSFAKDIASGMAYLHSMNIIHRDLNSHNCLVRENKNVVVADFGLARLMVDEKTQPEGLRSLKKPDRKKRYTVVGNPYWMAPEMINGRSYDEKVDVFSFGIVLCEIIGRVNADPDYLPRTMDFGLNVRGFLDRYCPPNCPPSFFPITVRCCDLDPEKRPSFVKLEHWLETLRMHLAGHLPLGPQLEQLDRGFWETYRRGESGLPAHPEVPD
Sequence of CAAX prenyl protease 2 (Saccharomyces cerevisiae S288c, UniProt Q03530) (Q03530 whole entry): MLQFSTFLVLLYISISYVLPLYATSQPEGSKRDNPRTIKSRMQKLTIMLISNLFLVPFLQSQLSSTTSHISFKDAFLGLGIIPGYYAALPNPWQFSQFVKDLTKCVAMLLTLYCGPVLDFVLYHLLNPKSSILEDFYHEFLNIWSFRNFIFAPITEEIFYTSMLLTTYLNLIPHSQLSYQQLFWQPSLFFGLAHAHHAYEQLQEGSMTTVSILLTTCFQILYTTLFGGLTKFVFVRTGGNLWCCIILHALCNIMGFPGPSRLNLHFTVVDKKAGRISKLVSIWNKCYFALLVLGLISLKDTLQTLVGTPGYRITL

`CC(C)CC(=O)NC(c1cccs1)c1ccc2cccnc2c1O` (stereo unspecified): in [1], the 50% effective concentration (EC50) was 0.489 µM (active). For the same molecule, the IC50 in assay [2] was > 119 µM (inactive).

On to `CCOC(=O)c1ccc(NC2=CC(=O)C(=O)c3ccccc32)cc1`, for which the IC50 in assay [3] is 60.7 µM (inactive); in [4], > 100 µM (active); in assay [5], 2.6 µM (active).

For `OC(CNCCC1C=Nc2ccccc21)Cn1c2ccc(Cl)cc2c2cc(Cl)ccc21` (stereo unspecified), the EC50 in [6] is 9.1 µM (active); in assay [9], > 56 µM (inactive). The AC50 in assay [7] is 8.21 µM (active); in assay [8], 79.3 µM (active); in assay [10], 5.11 µM (active).

Regarding `CCCCCCCCCCCCCCCC[N+](C)(C)C`, the half-maximal activity concentration (AC50) in assay [11] is 12.7 µM (active).

For the molecule `NC1CCC(Nc2nc(Cl)cc(-c3c[nH]c4ncccc34)n2)CC1` (stereo unspecified), the results for the Ki in assay [12], in assay [13] and in assay [14] were > 1.58 µM (inactive), 0.0316 µM (active) and 0.0316 µM (active), respectively. Moreover, the pKi in assay [13] and in [14] was 7.5 each time.

`O=C(O)C1CN(Cc2ccc(OCc3ccccc3)cc2Cl)C1`: the Ki in assay [15], in assay [16] and in assay [17] was > 3.16 µM (inactive) throughout.

On to `COc1ccc(C(=O)c2nccc3cc(OC)c(OC)cc23)cc1OC`, for which the concentration for half-maximal inhibition (IC50) in [18] is listed as 19.6 µM (not active).

Consider `Cc1ccccc1-c1cc2c(nn1)-c1ccccc1C2=O`, for which, in [19], the IC50 is 32 µM (inactive).
